Reference: the NIST ThermoML archive (doi:10.1021/acs.jced.6b00178)

Test: xn = mol fraction of the nth substance listed
Conditions: 100 kPa, Liquid; for viscosity: Concentric cylinders viscometry; for mass density: Vibrating tube method

CCCCn1cc[n+](C)c1.N#CN=C=[N-] [1-butyl-3-methylimidazolium dicyanamide] + CCCC[n+]1ccn(C)c1.O=S(=O)([N-]S(=O)(=O)C(F)(F)F)C(F)(F)F
Conditions	mass density, x2 = 0 [kg/m3]	mass density, x2 = 0.251 [kg/m3]	mass density, x2 = 0.457 [kg/m3]	mass density, x2 = 0.749 [kg/m3]	viscosity, x2 = 0 [mPa·s]	viscosity, x2 = 0.251 [mPa·s]	viscosity, x2 = 0.457 [mPa·s]	viscosity, x2 = 0.749 [mPa·s]
283.15 K	1070	1194.3	1280.8	1381.8	58.35	72.33	82.5	95.81
288.15 K	1066.7	1190.5	1276.6	1377.2	45.91	56.47	64.11	73.99
293.15 K	1063.4	1186.7	1272.5	1372.7	36.83	44.98	50.83	58.31
298.15 K	1060.2	1183	1268.5	1368.1	30.08	36.45	41.02	46.82
303.15 K	1057	1179.3	1264.4	1363.6	24.94	30.02	33.66	38.18
308.15 K	1053.8	1175.7	1260.4	1359.2	20.98	25.08	28.01	31.61
313.15 K	1050.6	1172	1256.4	1354.7	17.86	21.22	23.6	26.5
318.15 K	1047.5	1168.4	1252.4	1350.3	15.38	18.16	20.12	22.48
323.15 K	1044.4	1164.9	1248.5	1345.9	13.38	15.7	17.33	19.27
328.15 K	1041.3	1161.3	1244.6	1341.5	11.74	13.69	15.06	16.68
333.15 K	1038.2	1157.8	1240.7	1337.2	10.38	12.05	13.27	14.56
338.15 K	1035.2	1154.3	1236.8	1332.9	9.251	10.68	11.72	12.82
343.15 K	1032.1	1150.8	1233	1328.6	8.298	9.53	10.43	11.36
348.15 K	1029.1	1147.3	1229.2	1324.3	7.488	8.56	9.335	10.14
353.15 K	1026.1	1143.8	1225.4	1320	6.794	7.728	8.408	9.098
358.15 K	1023.2	1140.4	1221.6	1315.8	6.196	7.016	7.615	8.211
363.15 K	1020.3	1137	1217.9	1311.6	5.677	6.403	6.932	7.449

CCCCn1cc[n+](C)c1.F[P-](F)(F)(F)(F)F [1-butyl-3-methylimidazolium hexafluorophosphate] + CCCC[n+]1ccn(C)c1.O=S(=O)([N-]S(=O)(=O)C(F)(F)F)C(F)(F)F
Conditions	mass density, x2 = 0 [kg/m3]	mass density, x2 = 0.25 [kg/m3]	mass density, x2 = 0.5 [kg/m3]	mass density, x2 = 0.748 [kg/m3]	viscosity, x2 = 0 [mPa·s]	viscosity, x2 = 0.25 [mPa·s]	viscosity, x2 = 0.5 [mPa·s]	viscosity, x2 = 0.748 [mPa·s]
283.15 K	1379.9	1402.5	1421.1	1437.4	794.33	360.25	221.31	148.25
288.15 K	1376.5	1398.3	1417.2	1433.1	557.27	264.71	166.04	112.57
293.15 K	1372	1393.8	1412.6	1428.4	393.86	196.39	126.16	87.23
298.15 K	1367.6	1389.4	1408	1423.7	285.02	148.96	97.74	68.88
303.15 K	1363.4	1385	1403.5	1419	210.93	115.08	77.09	55.3
308.15 K	1359.2	1380.7	1399	1414.3	159.46	90.44	61.82	45.08
313.15 K	1355.1	1376.4	1394.5	1409.7	122.78	72.18	50.31	37.25
318.15 K	1351	1372.1	1390	1405.1	96.28	58.45	41.52	31.17
323.15 K	1347	1367.9	1385.6	1400.5	76.72	47.96	34.68	26.38
328.15 K	1342.9	1363.6	1381.2	1395.9	62.04	39.84	29.3	22.56
333.15 K	1338.9	1359.4	1376.7	1391.3	50.85	33.47	25	19.47
338.15 K	1334.9	1355.2	1372.3	1386.8	42.2	28.39	21.53	16.96
343.15 K	1330.9	1351	1368	1382.3	35.43	24.3	18.7	14.88
348.15 K	1326.9	1346.9	1363.6	1377.9	30.04	20.99	16.38	13.15
353.15 K	1323	1342.7	1359.3	1373.4	25.72	18.29	14.44	11.7
358.15 K	1319	1338.6	1355.1	1369	22.22	16.04	12.82	10.47
363.15 K	1315.2	1334.6	1350.8	1364.6	19.36	14.17	11.46	9.428

CCCCn1cc[n+](C)c1.N#C[S-] [1-butyl-3-methylimidazolium thiocyanate] + CCCC[n+]1ccn(C)c1.O=S(=O)([N-]S(=O)(=O)C(F)(F)F)C(F)(F)F
Conditions	mass density, x2 = 0 [kg/m3]	mass density, x2 = 0.25 [kg/m3]	mass density, x2 = 0.5 [kg/m3]	mass density, x2 = 0.748 [kg/m3]	viscosity, x2 = 0 [mPa·s]	viscosity, x2 = 0.25 [mPa·s]	viscosity, x2 = 0.5 [mPa·s]	viscosity, x2 = 0.748 [mPa·s]
283.15 K	1079.2	1206.2	1305.3	1385.3	139.54	133.49	124.13	115.12
288.15 K	1076.2	1202.6	1301.2	1380.7	104.51	101.08	94.68	88.29
293.15 K	1073.2	1199	1297.1	1376.2	82.91	80.92	76.17	71.22
298.15 K	1070.2	1195.4	1293.1	1371.7	62.63	61.69	58.5	55.06
303.15 K	1067.2	1191.8	1289	1367.3	49.94	49.55	47.23	44.62
308.15 K	1064.2	1188.3	1285	1362.8	40.48	40.42	38.7	36.7
313.15 K	1061.3	1184.7	1281	1358.4	34.08	34.22	32.85	31.22
318.15 K	1058.4	1181.2	1277.1	1354	27.8	28.05	27.03	25.81
323.15 K	1055.5	1177.7	1273.1	1349.7	23.49	23.79	22.97	22.01
328.15 K	1052.6	1174.3	1269.2	1345.3	20.06	20.39	19.74	18.96
333.15 K	1049.8	1170.8	1265.3	1341	17.58	17.91	17.36	16.7
338.15 K	1047	1167.4	1261.5	1336.7	15.08	15.38	14.94	14.44
343.15 K	1044.1	1164	1257.6	1332.4	13.24	13.54	13.16	12.74
348.15 K	1041.4	1160.6	1253.8	1328.1	11.71	12	11.67	11.33
353.15 K	1038.6	1157.3	1250	1323.9	10.67	10.92	10.65	10.36
358.15 K	1035.8	1154	1246.2	1319.7	9.355	9.577	9.351	9.114
363.15 K	1033.1	1150.7	1242.4	1315.5	8.436	8.621	8.44	8.242
